Experiments:
[1] = molecular target: T1, acyl-CoA:cholesterol acyltransferase (ACAT) (Oryctolagus cuniculus, UniProt G1SFD9); assay: Inhibitory activity on acyl-CoA:cholesterol acyltransferase (ACAT); type: biochemical, white rabbit; settings: rabbit intestinal mucosa microsomes, read-out: Inhibition rate
T1 construct: The intestinal mucosa of a white rabbit was homogenized and microsomal fraction was obtained; from tissue; host or cells: white rabbit intestinal mucosa, microsomal fraction
T1 sequence (G1SFD9 1-524): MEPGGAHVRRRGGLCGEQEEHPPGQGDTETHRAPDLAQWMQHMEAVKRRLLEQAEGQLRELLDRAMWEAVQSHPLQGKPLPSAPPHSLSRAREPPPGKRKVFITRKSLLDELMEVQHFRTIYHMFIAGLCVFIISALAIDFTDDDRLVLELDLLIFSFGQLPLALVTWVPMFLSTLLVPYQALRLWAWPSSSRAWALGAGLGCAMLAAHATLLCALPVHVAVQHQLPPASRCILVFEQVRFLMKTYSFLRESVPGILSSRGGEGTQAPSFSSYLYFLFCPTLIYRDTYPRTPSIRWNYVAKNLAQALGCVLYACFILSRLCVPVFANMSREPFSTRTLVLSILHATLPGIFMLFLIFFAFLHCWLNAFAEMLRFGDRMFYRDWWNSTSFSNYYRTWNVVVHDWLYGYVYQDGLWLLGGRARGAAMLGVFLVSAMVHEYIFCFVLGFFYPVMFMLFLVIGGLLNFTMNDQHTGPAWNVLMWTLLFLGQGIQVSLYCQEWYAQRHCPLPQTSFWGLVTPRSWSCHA
Experimental: Inhibitory activity on acyl-CoA:cholesterol acyltransferase (ACAT)
The enzyme used in the test was prepared according to the method of Heider et al. [J. Lipid, Res. 24, 1127 (1983)]. The intestinal mucosa of a white rabbit was homogenized and microsomal fraction was obtained by stepwise centrifugation. The microsomal fraction was suspended in 0.154M phosphate buffer (pH 7.4) and stored at -80° C. until use.
ACAT activity was determined by a modification of the method of Helgerud et al. [J. Lipid Res. 22, 271 (1981)] by measuring radioactivity incorporated into cholesterol esters from [1-^14 C]oleyl-CoA, as an indication. As to the ACAT-inhibitory activity of each compound to be tested, the inhibition rate was calculated by the following equation. [formula]

[2] = test system: hamsters fed on a high-cholesterol diet; assay: Serum cholesterol lowering activity in hamsters fed on a high-cholesterol diet; type: in vivo, Male Syrian hamsters; settings: Mesocricetus auratus, 30 mg/kg per day for 4 days, 24 hours after last administration, read-out: Reduction rate of total serum cholesterol concentration
Experimental: Serum cholesterol lowering activity in hamsters fed on a high-cholesterol diet
Male Syrian hamsters of 10-week-old were divided into three groups. The first group (normal group) was fed an ordinary diet for 4 days. The second group (control group) was fed a high cholesterol diet (containing 0.5% cholesterol and 8.0% coconut oil) for 4 days. The third group (treated group) was fed a high cholesterol diet and was treated with a compound for 4 days. Simultaneously with the beginning of the above feeding, the compound was suspended in a 0.5% carboxymethyl cellulose solution and administered to the treated group, in a dose of 30 mg (in terms of the compound) per kg of body weight per day for 4 days. A 0.5% carboxymethyl cellulose solution was also administered to the normal group and the control group in the same manner as above.
After 24 hours of the last administration, blood was collected and the cholesterol concentration in serum was measured by an enzymatic method. The reduction rate of the total serum cholesterol concentration was calculated from values obtained for the three groups by the following equation. [formula] wherein A: the serum cholesterol concentration of the control group.
B: the serum cholesterol concentration of the treated group.
C: the serum cholesterol concentration of the normal group.

Compound | inhibition at 0.01 µM [1] | inhibition at 1 µM [1] | inhibition in vivo at 30 mg/kg [2]
Cc1nc(-c2ccccc2)nc(-c2ccccc2Cl)c1NC(=O)Nc1ccc(N(C)C)cc1 [Compound 6, N-[4-(2-Chlorophenyl)-6-methyl-2-phenylpyrimidin-5-yl]-N'-(4-dimethylaminophenyl)urea] | – | 23% | –
CCc1cccc(CC)c1NC(=O)Nc1cnc(-c2ccccc2)nc1-c1ccccc1Cl [Compound 14, N-[4-(2-Chlorophenyl)-2-phenylpyrimidin-5-yl]-N'-(2,6-diethylphenyl)urea] | 58.8% | 99% | 59.4%
COc1ccccc1-c1nc(-c2ccccc2)ncc1NC(=O)Nc1c(C(C)C)cccc1C(C)C [Compound 40, N-(2,6-Diisopropylphenyl)-N'-[4-(2-methoxyphenyl)-2-phenylpyrimidin-5-yl]urea] | 47.5% | – | –
Cc1cccc(N(C)C)c1NC(=O)Nc1cnc(-c2ccccc2)nc1-c1ccccc1Cl [Compound 19, N-[4-(2-Chlorophenyl)-2-phenylpyrimidin-5-yl]-N'-(2-dimethylamino-6-methylphenyl)urea] | 35.9% | – | –
CC(C)c1cccc(C(C)C)c1NC(=O)Nc1cnc(-c2ccccc2)nc1-c1cccc(Cl)c1 [Compound 26, N-[4-(3-Chlorophenyl)-2-phenylpyrimidin-5-yl]-N'-(2,6-diisopropylphenyl)urea] | 58.9% | – | –
CC(C)c1cccc(C(C)C)c1NC(=O)Nc1cnc(C(C)(C)C)nc1-c1ccccc1Cl [Compound 50, N-[2-t-Butyl-4-(2-chlorophenyl)pyrimidin-5-yl]-N'-(2,6-diisopropylphenyl)urea] | 48.4% | – | –
CC(C)c1cccc(C(C)C)c1NC(=O)Nc1cnc(-c2ccccc2)nc1-c1ccc(Cl)cc1Cl [Compound 30, N-[4-(2,4-Dichlorophenyl)-2-phenylpyrimidin-5-yl]-N'-[2,6-diisopropylphenyl)urea] | 37.1% | – | –
CC(C)c1cccc(C(C)C)c1NC(=O)Nc1cnc(-c2cc(Cl)cc(Cl)c2)nc1-c1ccccc1Cl [Compound 44, N-[4-(2-Chlorophenyl)-2-(3,5-dichlorophenyl)pyrimidin-5-yl]-N'-(2,6-diisopropylphenyl)urea] | 46.8% | – | –
CC(C)c1cccc(C(C)C)c1NC(=O)Nc1cnc(-c2ccccc2)nc1-c1ccc(Cl)cc1 [Compound 28, N-[4-(4-Chlorophenyl)-2-phenylpyrimidin-5-yl]-N'-(2,6-diisopropylphenyl)urea] | 40.7% | – | –
Cc1cc(C)c(NC(=O)Nc2c(C)nc(-c3ccccc3)nc2-c2ccccc2Cl)c(C)c1 [Compound 3, N-[4-(2-Chlorophenyl)-6-methyl-2-phenylpyrimidin-5-yl]-N'-(2,4,6-trimethylphenyl)urea] | – | 88.3% | –
Cc1cccc(C(C)C)c1NC(=O)Nc1c(C)nc(-c2ccccc2)nc1-c1ccccc1Cl [Compound 1, N-[4-(2-Chlorophenyl)-6-methyl-2-phenylpyrimidin-5-yl]-N'-(2-isopropyl-6-methylphenyl)urea] | 16.7% | 98% | –
O=C(Nc1cnc(-c2ccccc2)nc1-c1ccccc1Cl)Nc1c(F)cc(F)cc1F [Compound 23, N-[4-(2-Chlorophenyl)-2-phenylpyrimidin-5-yl]-N'-(2,4,6-trifluorophenyl)urea] | – | 87% | –
CCc1cccc(CC)c1NC(=O)Nc1cnc(-c2ccccc2)nc1-c1ccccc1SC [Compound 41, N-(2,6-Diethylphenyl)-N'-[4-(2-methylthiophenyl)-2-phenylpyrimidin-5-yl]urea] | 56.3% | – | –
Cc1cccc(C)c1NC(=O)Nc1cnc(-c2ccccc2)nc1-c1ccccc1Cl [Compound 13, N-[4-(2-Chlorophenyl)-2-phenylpyrimidin-5-yl]-N'-(2,6-dimethylphenyl)urea] | 40.2% | 97.5% | –
Cc1cc(C)c(NC(=O)Nc2cnc(-c3ccccc3)nc2-c2ccccc2Cl)c(C)c1 [Compound 18, N-[4-(2-Chlorophenyl)-2-phenylpyrimidin-5-yl]N'-(2,4,6-trimethylphenyl) urea] | – | 79.7% | –
Cc1nc(-c2ccccc2)nc(-c2ccccc2Cl)c1NC(=O)Nc1c(C(C)C)cccc1C(C)C [Compound 2, N-[4-(2-Chlorophenyl)-6-methyl-2-phenylpyrimidin-5-yl]-N'-(2,6-diisopropylphenyl)urea] | 58.5% | 99.2% | 42.7%
CC(C)c1cccc(C(C)C)c1NC(=O)Nc1cnc(-c2ccccc2)nc1-c1ccccc1F [Compound 34, N-(2,6-Diisopropylphenyl)-N'-[4-(2-fluorophenyl)-2-phenylpyrimidin-5-yl]urea] | 65.8% | – | 74%
Cc1ncc(NC(=O)Nc2c(C(C)C)cccc2C(C)C)c(-c2ccccc2Cl)n1 [Compound 46, N-[4-(2-Chlorophenyl)-2-methylpyrimidin-5-yl]-N'-(2,6-diisopropylphenyl)urea] | 32% | – | –

Second part, led by results:

inhibition at 0.01 µM [1] | inhibition at 1 µM [1] | Compound | inhibition in vivo at 30 mg/kg [2]
70% | – | CCc1cccc(CC)c1NC(=O)Nc1cnc(N2CCCC2)nc1-c1ccccc1Cl [Compound 53, N-[4-(2-Chlorophenyl)-2-(N-pyrrolidino)pyrimidin-5-yl]-N'-(2,6-diethylphenyl)urea] | –
63.2% | – | CCc1cccc(CC)c1NC(=O)Nc1cnc(N2CCOCC2)nc1-c1ccccc1Cl [Compound 57, N-[4-(2-Chlorophenyl)-2-(N-morpholino)pyrimidin-5-yl]-N'-(2,6-diethylphenyl)urea] | 59.5%
29.8% | – | CCCCCCCc1ccc(NC(=O)Nc2c(C(C)C)cccc2C(C)C)c(-c2ccccc2Cl)n1 [Compound 65, N-[2-(2-Chlorophenyl)-6-(n-heptyl)pyridin-3-yl]-N'-(2,6-diisopropylphenyl)urea] | –
53.1% | – | CC(C)c1cccc(C(C)C)c1NC(=O)Nc1ccc(-c2ccccc2)nc1-c1ccccc1Cl [Compound 63, N-[2-(2-Chlorophenyl)-6-phenylpyridin-3-yl]-N'-(2,6-diisopropylphenyl)urea] | –
69.5% | – | CC(C)c1cccc(C(C)C)c1NC(=O)Nc1cnc(N2CCCCC2)nc1-c1ccccc1Cl [Compound 56, N-[4-(2-Chlorophenyl)-2-(N-piperidino)pyrimidin-5-yl]-N'-(2,6-diisopropylphenyl)urea] | –
58% | – | CC(C)c1cccc(C(C)C)c1NC(=O)Nc1ccc(C2CCCCC2)nc1-c1ccccc1Cl [Compound 67, N-[2-(2-Chlorophenyl)-6-cyclohexylpyridin-3-yl]-N'-(2,6-diisopropylphenyl)urea] | –
40.1% | – | CC(C)c1cccc(C(C)C)c1NC(=O)Nc1cnc(N2CCN(C)CC2)nc1-c1ccccc1Cl [Compound 60, N-[4-(2-Chlorophenyl)-2-(4-methyl-1-piperazino)pyrimidin-5-yl]-N'-(2,6-diisopropylphenyl)urea] | –
43.6% | – | Cc1ccc(NC(=O)Nc2c(C(C)C)cccc2C(C)C)c(-c2ccccc2Cl)n1 [Compound 64, N-[2-(2-Chlorophenyl)-6-methylpyridin-3-yl]-N'-(2,6-diisopropylphenyl)urea] | –
64.7% | – | CCOc1ncc(NC(=O)Nc2c(C(C)C)cccc2C(C)C)c(-c2ccccc2Cl)n1 [Compound 52, N-[4-(2-Chlorophenyl)-2-ethoxypyrimidin-5-yl]-N'-(2,6-diisopropylphenyl)urea] | –
